Values quoted from earlier work in patent US6391332B1, “Therapeutic micronutrient composition for severe trauma, burns and critical illness” (Baxter International, Inc., priority 2000, dated 2002).

Columns and labels:
[1] = doses exceeding 40 grams a day
burn patients = conditions: 2-10 grams given during burn resuscitation
critically ill patients = conditions: glutamine supplementation, clinical trials

SMILES: N=C(N)NCCC[C@H](N)C(=O)O [arginine, L-arginine]
- toxicity [1]: non-toxic

SMILES: O=C1O[C@H]([C@@H](O)CO)C(O)=C1O [ascorbic acid]
- vascular permeability and fluid requirements (burn patients): significantly decrease

SMILES: NC(=O)CC[C@H](N)C(=O)O [glutamine, L-glutamine]
- infection rate (critically ill patients): decreased infection rate
